Patent publication US4921528A, “Substituted azolylmethyl-cyclopropyl-carbinol derivatives” (Bayer Aktiengesellschaft, priority 1984, dated 1990)

Key:
Format in all cases: in vivo
Barley plants = experiment: Inhibition of growth of barley; details: sprayed until dripping wet; measured after 3 weeks; compared with prior-art compounds (A), (B), (C) and (D)
Procedure: Inhibition of growth of barley
(§1) Solvent: 30 parts by weight of dimethylformamide
(§2) Emulsifier: 1 part by weight of polyoxyethylene sorbitan monolaurate.
(§3) To produce a suitable preparation of active compound, 1 part by weight of active compound is mixed with the stated amounts of solvent and emulsifier and the mixture is made up to the desired concentration with water.
Barley plants are grown in a greenhouse to the 2-leaf stage. In this stage, the plants are sprayed with the preparations of active compound until dripping wet. After 3 weeks, the additional growth is measured on all plants and the inhibition of growth in per cent of the additional growth of the control plants is calculated. 100% inhibition of growth means that growth has stopped and 0% denotes a growth corresponding to that of the control plants.

Cotton plants = experiment: Inhibition of growth of cotton; details: sprayed until dripping wet; measured after 3 weeks; compared with prior-art compound (A)
Procedure: Inhibition of growth of cotton
as §1
Emulsifier: 1 part by weight of […] sorbitan monolaurate.
as §3
Cotton plants are grown in a greenhouse until the 5th secondary leaf has unfolded completely. In this stage, the plants are sprayed with the preparations of active compound until dripping wet. After 3 weeks, the additional growth of the plants is measured and the inhibition of growth in per cent of the additional growth of the control plants is calculated. 100% inhibition of growth means that growth has stopped and 0% denotes a growth corresponding to that of the control plants.

Rice = experiment: Inhibition of growth of rice; details: pots placed in active compound solution; length determined after development of the third leaf
Procedure: Inhibition of growth of rice
as §1, §2
To prepare a suitable preparation of active compound, 1 part by weight of active compound is mixed with the stated amounts of solvent and emulsifier, and the mixture is made up to the desired concentration with water.
Rice is grown in climatic chambers in small pots containing vermiculite, until the first leaf reaches a size of 1-2 cm. At this stage, the pots are placed in the prepared active compound solutions to a height corresponding to half the height of the pot.
After the development of the third leaf, the length of all plants is determined, and expressed as a percentage of the length of the control plants. 100% means growth corresponding to that of the control plants, values below 100% mean inhibition of growth, and values above 100% mean promotion of growth.

Venturia inaequalis = experiment: Venturia test (apple)/protective; details: young apple plants sprayed, then inoculated; evaluation 12 days after inoculation; compared with comparative substance (c)
Procedure: Venturia test (apple)/protective/ Solvent: 4.7 parts by weight of acetone Emulsifier: 0.3 parts by weight of alkylaryl polyglycol ether. To produce a suitable preparation of active compound, 1 part by weight of active compound is mixed with the stated amounts of solvent and emulsifier, and the concentrate is diluted with water to the desired concentration. To test for protective activity, young plants are sprayed with the preparation of active compound until dripping wet. After the spray coating has dried on, the plants are inoculated with an aqueous conidia suspension of the apple scab causative organism (Venturia inaequalis) and then remain in an incubation cabinet at 20° C. and 100% relative atmospheric humidity for 1 day. The plants are then placed in a greenhouse at 20° C. and a relative atmospheric humidity of about 70%. Evaluation is carried out 12 days after the inoculation.

Soya bean plants = experiment: Inhibition of growth of soya beans; details: sprayed until dripping wet; measured after 3 weeks; compared with prior-art compound (D)
Procedure: Inhibition of growth of soya beans
as §1, §2, §3
Soya bean plants are grown in a greenhouse until the first secondary leaf has unfolded completely. In this stage, the plants are sprayed with the preparations of active compound until dripping wet. After 3 weeks, the additional growth is measured on all the plants and the inhibition of growth in per cent of the additional growth of the control plants is calculated. 100% inhibition of growth means that growth has stopped and 0% denotes a growth corresponding to that of the control plants.

SMILES	inhibition of growth of barley (per cent of additional growth of control plants) (Barley plants)	inhibition of growth of cotton (per cent of additional growth of control plants) (Cotton plants)	inhibition of growth of rice (length of plants as percentage of control plants) (Rice)	protective activity against apple scab (Venturia inaequalis) (Venturia inaequalis)	inhibition of growth of soya beans (per cent of additional growth of control plants) (Soya bean plants)
OC(Cn1cncn1)(c1ccc(Cl)cc1)C1(Oc2ccccc2)CC1 (stereo not shown) [Compound I-5]	more pronounced inhibition of growth than the compounds (A), (B), (C) and (D)	more pronounced inhibition of growth than the compound (A)	pronounced inhibition of growth	–	–
CCCCSC1(C(O)(Cn2cncn2)c2ccc(Cl)cc2)CC1 (stereo not shown) [Compound I-6]	–	–	pronounced inhibition of growth	–	–
CCSC1(C(O)(Cn2cncn2)c2ccc(Cl)cc2)CC1 (stereo not shown) [Compound I-1, 1-(4-chlorophenyl)-1-[1-(ethylthio)-1-cyclopropyl]-2-(1,2,4-triazol-1-yl)1-ethanol]	–	–	pronounced inhibition of growth	better activity than the known comparative substance (c)	–
CC[S+]([O-])C1(C(O)(Cn2cncn2)c2ccc(Cl)cc2)CC1 (stereo not shown) [Compound I-3, 1-(4-chlorophenyl)-1-[1-(ethylsulphinyl)-1-cyclopropyl]-2-(1,2,4-triazol-yl)1-ethanol]	more pronounced inhibition of growth than the compounds (A), (B), (C) and (D)	more pronounced inhibition of growth than the compound (A)	pronounced inhibition of growth	–	more pronounced inhibition of growth than the compound (D)
